The values that follow come from US20240308976A1, “COMPOUNDS THAT MEDIATE PROTEIN DEGRADATION AND USES THEREOF” (Monte Rosa Therapeutics, Inc., priority 2021, published 2024).

Assay [1] addresses T1, GSPT1 (Homo sapiens, UniProt P15170+Q96SW2).
T1 construct: CAL-51 cells were purchased from DSMZ (cat. Number ACC302); host or cells: CAL-51
Description: Immunofluorescence assay for activity to degrade GSPT1 in CAL-51 cells. The assay is classed as cell-based. As to conditions: 6 h treatment, read-out: IF Class (GSPT1 degradation, DC50). As to the method:
Example 147: Compound Activity by Immunofluorescence Assay
The representative compounds were tested in an immunofluorescence assay for their activity to degrade GSPT1. CAL-51 cells were purchased from DSMZ (cat. Number ACC302), sub-cultured in 90% Dulbecco's MEM (4.5 g/L glucose, Gibco 11965)+10% heat inactivated FBS (BioConcept, 2-01F136I) and incubated at 37° C., 5% CO2. For the assay imaging microtiter plate Cell Carrier 96 Ultra (Perkin Elmer 6055302) were pre-coated with Fibronectin (Sigma F085, 30 μL at 0.2 μg/mL) in PBS (100 μL, Gibco 14190) for 45 min at room temperature, rinsed with PBS and CAL-51 cells (30K cells/well) were plated and let to adhere overnight. Cells were treated with compounds typically using a serial dilution ranging from 30 μM to 0.1 nM for 6 h. Compounds were stored at 10 mM DMSO stocks. Vehicle (DMSO), positive (CC-885, 10 μM) and rescue controls (positive control plus 0.2 μM bortezomib) were also included at this stage. Cells were subsequently rinsed with PBS and fixed in 10% Formalin solution (50 μL, Sigma HT5011)) for 20 mins at room temperature. Following three consecutive PBS washes (100 μL), cells were permeabilized in 0.1% Triton X-100 in PBS (Sigma 93443, 50 μL) for 15 min. at room temperature. Following three further PBS washes, 50 μL blocking buffer (1% BSA, Sigma A4503, in PBS) was added for 45 min for signal-to noise reduction. Primary antibody (human GSPT1, Sigma HPA052488) was diluted in blocking buffer (dil.1/300, 35 μL/well) and incubated with the cells overnight at 4° C. After three PBS washes, Alexa-fluor 488 coupled secondary antibodies (Invitrogen, A32731, dil. 1/1000), Alexa-fluor 647-Phalloidin (Invitrogen, A22287, dil. 1/200) and DAPI (Thermo, #62248, dil. 1/1000) were diluted in blocking buffer and incubated with the samples for 2 h at room temperature. After three final PBS washes, samples were conserved in 100 μL PBS in the dark, until measurement. Image acquisition was performed on the Operetta High-Content Imager (Perkin-Elmer). Fluorescence intensity of […] (GSPT1), Alexa-Fluor 647 (Actin) and DAPI (Nucleus) were measured. For the determination of GSPT1 DC50 values, a custom algorithm implemented in the PerkinElmer image analysis software Harmony-Acapella® was developed. After user-defined setting of adjustment parameters, the analysis was run identically without human intervention for all image fields. DAPI staining of the nuclei was used to determine the location of cells using standard nuclei detection modules. Segmentation artifacts were removed by threshold-based filters for area, roundness and intensity. The outline of the cells was determined analogously from the sum of the normalized, smoothed DAPI and Actin channel, starting from each nucleus. The Alexa-Fluor 488 (GSPT1) signal intensity in each cell was finally measured, in order to obtain a Mean intensity per cell. GSPT1 degradation (DC50) was calculated after normalization to controls and data import in CDD vault Database, using non-linear regression.
(§1) In Table 2, each compound is assigned a class (HTRF class) indicating the ability for Cereblon binding by means of their HTRF IC50 values according to […]: A, B, C or D. According to the code, A represents an IC50 value of ≤100 nM, B represents an IC50 value>100 nM and ≤1000 nM, C represents an IC50 value>1000 nM. IF Class assigns each compound a code indicating the ability for GSPT1 degradation: A, B or C. According to the code, A represents a DC50 value of ≤30 nM, B represents a DC50 value>30 nM and ≤300 nM and C represents a DC50 value of >300 nM.

The target of assay [2] is CRBN-DDB1 (Homo sapiens, UniProt Q96SW2). The experiment in a line: Compound binding to CRBN by HTRF assay. As to conditions: CRBN-DDB1 2.5 nM, Cy5-Thalidomide 100 nM, 30 min at ambient temperature; read-out: HTRF Class (Cereblon binding, HTRF IC50). As to the method: Example 146: Compound Binding to CRBN by HTRF Assay
Compound activity was monitored in a Homogenous Time-Resolved Fluorescence (HTRF) assay using 1-[5-({2-[2-(2-{[2-(2,6-dioxopiperidin-3-yl)-1,3-dioxo-2,3-dihydro-1H-isoindol-4-yl]oxy}acetamido)ethoxy]ethyl}carbamoyl)pentyl]-3,3-dimethyl-2-[(1E,3E)-5-[(2E)-1,3,3-trimethyl-5-sulfo-2,3-dihydro-1H-indol-2-ylidene]penta-1,3-dien-1-yl]-3H-indol-1-ium-5-sulfonate as a fluorescent probe. Biochemical assays were conducted in Greiner white 384 well HiBase plates (Cat. No 784075-25) in 10 μL total volume. A one pot detection solution of CRBN-DDB1 (2.5 nM), Anti-His Terbium Cryptate Gold (1X, PerkinElmer Cat. #: 61HI2TLB), and Cy5-Thalidomide (100 nM, Tenova Cat.: T52461) was prepared in 20 mM HEPES, 20 mM NaCl, 0.2 mM TCEP, 0.2 mM EDTA, and 0.005% Tween20 was dispensed to each assay plate. Compounds were stored in dry, ambient temperatures at 10 mM. A 10-point, 1:3 dilution series was prepared from 10 mM stock concentrations in Echo-compatible LDV plates. 10 nL of each compound dilution series was dispensed into assays wells using an Echo 650 (Labcyte inc. USA). 10 nL of 10 mM Lenalidomide was transferred into the active-control wells for the assay and 10 nL of DMSO was transferred into the neutral-control wells. The assay was then allowed to incubate for 30 min at ambient temperature after transferring compound. Plate measurements were taken on a Pherastar FSX (BMG Labtech, Germany) using the HTRF Red filter (Ex. 337 nm, em1: 620 nm, em2: 665 nm) (Flashes: 50, Integration time: 60-400 us, Z-height: 10 mm, Ratio-multiplier: 10,000). The HTRF signal was then subsequently normalized to the neutral and active controls. Analysis and IC50 values were derived using KNIME analytics (KNIME Zurich) transformation and fitting within Collaborative Drug Discovery (Collaborative Drug Discovery USA). Ki was derived from the geometric mean of the IC50 values using the Cheng-Prustoff transformation.
as §1

T1 sequence (P15170 whole entry): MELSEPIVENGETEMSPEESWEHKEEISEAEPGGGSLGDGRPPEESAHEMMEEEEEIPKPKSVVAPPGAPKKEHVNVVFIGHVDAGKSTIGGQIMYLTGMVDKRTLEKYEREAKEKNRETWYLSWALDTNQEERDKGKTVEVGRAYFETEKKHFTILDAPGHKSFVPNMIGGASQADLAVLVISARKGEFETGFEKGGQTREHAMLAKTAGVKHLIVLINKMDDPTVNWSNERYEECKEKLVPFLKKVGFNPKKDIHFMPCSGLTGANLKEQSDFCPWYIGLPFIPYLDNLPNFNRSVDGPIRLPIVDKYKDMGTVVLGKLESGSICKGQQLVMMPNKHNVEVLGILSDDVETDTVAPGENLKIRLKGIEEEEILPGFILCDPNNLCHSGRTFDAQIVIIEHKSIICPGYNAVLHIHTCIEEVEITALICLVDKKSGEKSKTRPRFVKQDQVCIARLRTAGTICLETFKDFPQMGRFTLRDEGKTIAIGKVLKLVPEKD
T1 sequence (Q96SW2 whole entry): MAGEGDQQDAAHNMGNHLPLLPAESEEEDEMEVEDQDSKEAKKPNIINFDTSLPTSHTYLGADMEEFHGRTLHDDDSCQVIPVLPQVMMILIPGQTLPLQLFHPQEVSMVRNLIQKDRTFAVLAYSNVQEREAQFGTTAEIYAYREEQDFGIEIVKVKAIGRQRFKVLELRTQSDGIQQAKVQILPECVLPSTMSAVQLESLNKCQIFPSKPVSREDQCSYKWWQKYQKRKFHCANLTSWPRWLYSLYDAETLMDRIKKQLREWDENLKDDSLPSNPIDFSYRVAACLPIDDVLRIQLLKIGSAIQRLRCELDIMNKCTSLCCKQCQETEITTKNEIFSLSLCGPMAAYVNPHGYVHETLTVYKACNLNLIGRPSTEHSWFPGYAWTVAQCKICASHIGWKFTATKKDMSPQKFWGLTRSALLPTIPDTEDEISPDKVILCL
T1 sequence (Q16531 2-1140 partner limits assumed): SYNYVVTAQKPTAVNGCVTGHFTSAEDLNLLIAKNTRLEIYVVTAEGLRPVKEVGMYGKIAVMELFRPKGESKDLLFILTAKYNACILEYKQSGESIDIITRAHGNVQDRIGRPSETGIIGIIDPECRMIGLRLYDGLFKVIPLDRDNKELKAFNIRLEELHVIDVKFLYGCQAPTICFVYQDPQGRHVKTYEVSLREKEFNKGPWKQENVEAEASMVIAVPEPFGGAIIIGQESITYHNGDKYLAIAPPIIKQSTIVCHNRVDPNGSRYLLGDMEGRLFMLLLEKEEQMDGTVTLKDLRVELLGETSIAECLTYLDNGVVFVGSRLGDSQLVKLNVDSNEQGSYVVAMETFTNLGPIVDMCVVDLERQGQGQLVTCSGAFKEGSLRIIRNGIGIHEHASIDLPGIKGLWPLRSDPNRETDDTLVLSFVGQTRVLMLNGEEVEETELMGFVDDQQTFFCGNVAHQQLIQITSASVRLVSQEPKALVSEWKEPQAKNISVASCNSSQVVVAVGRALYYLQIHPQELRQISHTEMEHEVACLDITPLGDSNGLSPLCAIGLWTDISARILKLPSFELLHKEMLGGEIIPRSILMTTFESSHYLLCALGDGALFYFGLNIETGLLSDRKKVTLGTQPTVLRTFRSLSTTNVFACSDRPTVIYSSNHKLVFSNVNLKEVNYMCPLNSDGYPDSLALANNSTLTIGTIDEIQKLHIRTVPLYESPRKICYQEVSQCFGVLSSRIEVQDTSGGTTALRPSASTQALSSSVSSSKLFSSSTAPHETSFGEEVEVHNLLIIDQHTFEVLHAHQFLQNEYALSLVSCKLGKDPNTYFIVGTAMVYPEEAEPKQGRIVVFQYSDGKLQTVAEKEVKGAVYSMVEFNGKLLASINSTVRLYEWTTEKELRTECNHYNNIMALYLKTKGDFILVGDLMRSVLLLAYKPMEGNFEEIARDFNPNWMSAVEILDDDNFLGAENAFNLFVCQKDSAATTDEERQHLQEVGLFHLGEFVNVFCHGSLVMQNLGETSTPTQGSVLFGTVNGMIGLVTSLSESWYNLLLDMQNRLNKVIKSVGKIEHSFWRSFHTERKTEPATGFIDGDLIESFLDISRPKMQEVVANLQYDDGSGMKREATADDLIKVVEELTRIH
Sequence of CRBN-DDB1 (Q96SW2 whole entry): as the sequence (Q96SW2 whole entry) above
Sequence of CRBN-DDB1 (Q16531 whole entry partner): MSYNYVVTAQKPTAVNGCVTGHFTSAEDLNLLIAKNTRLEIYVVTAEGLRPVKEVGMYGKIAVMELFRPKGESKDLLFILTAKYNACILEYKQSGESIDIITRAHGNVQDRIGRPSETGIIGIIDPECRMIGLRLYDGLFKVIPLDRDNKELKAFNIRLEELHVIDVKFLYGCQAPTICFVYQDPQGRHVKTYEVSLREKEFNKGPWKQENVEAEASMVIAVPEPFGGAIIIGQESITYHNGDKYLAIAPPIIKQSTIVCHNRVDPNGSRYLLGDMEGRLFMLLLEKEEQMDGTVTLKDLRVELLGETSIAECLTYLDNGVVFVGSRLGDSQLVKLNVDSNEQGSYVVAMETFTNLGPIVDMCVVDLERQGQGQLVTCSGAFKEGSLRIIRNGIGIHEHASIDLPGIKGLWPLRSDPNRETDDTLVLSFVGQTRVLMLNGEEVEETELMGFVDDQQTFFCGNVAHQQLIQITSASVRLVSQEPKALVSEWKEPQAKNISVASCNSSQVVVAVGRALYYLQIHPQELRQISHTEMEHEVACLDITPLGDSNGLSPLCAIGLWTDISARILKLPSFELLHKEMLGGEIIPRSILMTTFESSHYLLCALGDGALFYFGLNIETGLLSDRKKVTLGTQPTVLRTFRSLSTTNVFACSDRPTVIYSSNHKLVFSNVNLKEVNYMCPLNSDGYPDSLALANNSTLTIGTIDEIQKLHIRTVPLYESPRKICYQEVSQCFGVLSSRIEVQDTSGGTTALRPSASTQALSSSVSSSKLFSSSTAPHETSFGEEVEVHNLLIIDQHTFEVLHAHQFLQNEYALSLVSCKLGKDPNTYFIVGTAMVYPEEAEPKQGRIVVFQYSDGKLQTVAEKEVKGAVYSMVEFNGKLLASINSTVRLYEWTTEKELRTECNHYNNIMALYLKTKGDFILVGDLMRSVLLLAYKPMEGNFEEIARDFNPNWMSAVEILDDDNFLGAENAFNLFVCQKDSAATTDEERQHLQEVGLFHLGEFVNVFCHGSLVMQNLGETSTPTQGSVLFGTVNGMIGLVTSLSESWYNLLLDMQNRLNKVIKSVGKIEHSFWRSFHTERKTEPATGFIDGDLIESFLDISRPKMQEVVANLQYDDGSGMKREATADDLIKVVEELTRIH

As for `O=C1CCC(c2c(F)cc(N3CC(OC(=O)Nc4cccc(OC(F)F)c4)C3)cc2F)C(=O)N1` (stereo not shown) [Compound 14, 1-(4-(2,6-dioxopiperidin-3-yl)-3,5-difluorophenyl)azetidin-3-yl (3-(difluoromethoxy)phenyl)carbamate], the DC50 in assay [1] was not above 30 nM. In addition, the IC50 in assay [2] lay within 100 to 1000 nM.
Regarding `O=C1CCC(c2c(F)cc(N3CC(NC(=O)Nc4cccc(OC(F)F)c4)C3)cc2F)C(=O)N1` (stereo not shown) [Compound 15, 1-(3-(difluoromethoxy)phenyl)-3-(1-(4-(2,6-dioxopiperidin-3-yl)-3,5-difluorophenyl)azetidin-3-yl)urea], in assay [1], the DC50 lay in the range of 30 to 300 nM. Further, in assay [2], the IC50 is not above 100 nM.
Regarding `O=C1CCC(c2c(F)cc(N3CC(NC(=O)Nc4cc(F)cc(Cl)c4)C3)cc2F)C(=O)N1` (stereo not shown) [Compound 16, 1-(3-chloro-5-fluorophenyl)-3-(1-(4-(2,6-dioxopiperidin-3-yl)-3,5-difluorophenyl)azetidin-3-yl)urea], the DC50 in assay [1] fell in the range of 30 to 300 nM. The IC50 in assay [2] is 100 to 1000 nM.
In the same order, the values of `O=C1CCC(c2c(F)cc(N3CC(NC(=O)Nc4cccc(OC5CC5)c4)C3)cc2F)C(=O)N1` (stereo not shown) [Compound 17, 1-(3-cyclopropoxyphenyl)-3-(1-(4-(2,6-dioxopiperidin-3-yl)-3,5-difluorophenyl)azetidin-3-yl)urea] are 30 to 300 nM and 100 to 1000 nM.
On to `O=C1CCC(c2c(F)cc(N3CC(NC(=O)Nc4cccc(OC(F)(F)F)c4)C3)cc2F)C(=O)N1` (stereo not shown) [Compound 18, 1-(1-(4-(2,6-dioxopiperidin-3-yl)-3,5-difluorophenyl)azetidin-3-yl)-3-(3-(trifluoromethoxy)phenyl)urea], for which, in assay [1], the DC50 lay within 30 to 300 nM. Further, the IC50 in assay [2] fell in the range of 100 to 1000 nM.
The like results for `O=C1CCC(c2c(F)cc(N3CC(NC(=O)Nc4ccc(F)c(OC(F)F)c4)C3)cc2F)C(=O)N1` (stereo not shown) [Compound 19, 1-(3-(difluoromethoxy)-4-fluorophenyl)-3-(1-(4-(2,6-dioxopiperidin-3-yl)-3,5-difluorophenyl)azetidin-3-yl)urea] were, in that order, not above 30 nM and 100 to 1000 nM.
Take `Cc1ccc(NC(=O)NC2CN(c3cc(F)c(C4CCC(=O)NC4=O)c(F)c3)C2)cc1OC(F)F` (stereo not shown) [Compound 21, 1-(3-(difluoromethoxy)-4-methylphenyl)-3-(1-(4-(2,6-dioxopiperidin-3-yl)-3,5-difluorophenyl)azetidin-3-yl)urea]: the DC50 in assay [1] is not above 30 nM. The IC50 in assay [2] was in the range of 100 to 1000 nM.
Consider `O=C1CCC(c2c(F)cc(N3CC(NC(=O)Nc4cc(F)cc(OC(F)F)c4)C3)cc2F)C(=O)N1` (stereo not shown) [Compound 22, 1-(3-(difluoromethoxy)-5-fluorophenyl)-3-(1-(4-(2,6-dioxopiperidin-3-yl)-3,5-difluorophenyl)azetidin-3-yl)urea], for which, in assay [1], the DC50 lay within 30 to 300 nM. The IC50 in assay [2] fell in the range of 100 to 1000 nM.
Take `Cc1ccccc1-c1ccc(NC(=O)NC2CN(c3cc(F)c(C4CCC(=O)NC4=O)c(F)c3)C2)cn1` (stereo not shown) [Compound 23, 1-(1-(4-(2,6-dioxopiperidin-3-yl)-3,5-difluorophenyl)azetidin-3-yl)-3-(6-(o-tolyl)pyridin-3-yl)urea]: the DC50 in assay [1] was not above 30 nM. Moreover, in assay [2], the IC50 is not above 100 nM.
For `Cc1c(Cl)cc(NC(=O)NC2CN(c3cc(F)c(C4CCC(=O)NC4=O)c(F)c3)C2)cc1CN1CCOCC1` (stereo not shown) [Compound 24, 1-(3-chloro-4-methyl-5-(morpholinomethyl)phenyl)-3-(1-(4-(2,6-dioxopiperidin-3-yl)-3,5-difluorophenyl)azetidin-3-yl) urea], the DC50 in assay [1] was not above 30 nM. Also, in assay [2], the IC50 was not above 100 nM.
For the molecule `O=C1CCC(c2c(F)cc(N3CC(NC(=O)Nc4cc(-c5ccccc5)ccn4)C3)cc2F)C(=O)N1` (stereo not shown) [Compound 25, 1-(1-(4-(2,6-dioxopiperidin-3-yl)-3,5-difluorophenyl)azetidin-3-yl)-3-(4-phenylpyridin-2-yl) urea], the DC50 in assay [1] is more than 300 nM. For the same molecule, the IC50 in assay [2] is not above 100 nM.
As to `O=C1CCC(c2c(F)cc(N3CC(NC(=O)Nc4ccc(-c5ccccn5)cc4)C3)cc2F)C(=O)N1` (stereo not shown) [Compound 26, 1-(1-(4-(2,6-dioxopiperidin-3-yl)-3,5-difluorophenyl)azetidin-3-yl)-3-(4-(pyridin-2-yl)phenyl)urea], the DC50 in assay [1] was not above 30 nM. Also, the IC50 in assay [2] is not above 100 nM.
In the case of `O=C1CCC(c2c(F)cc(N3CC(NC(=O)Nc4cc(OC(F)(F)F)ccn4)C3)cc2F)C(=O)N1` (stereo not shown) [Compound 27, 1-(1-(4-(2,6-dioxopiperidin-3-yl)-3,5-difluorophenyl)azetidin-3-yl)-3-(4-(trifluoromethoxy)pyridin-2-yl)urea], in assay [1], the DC50 was in the range of 30 to 300 nM. In addition, in assay [2], the IC50 was not above 100 nM.
For `O=C1CCC(c2c(F)cc(N3CC(NC(=O)Nc4cc(Cl)cc(OC(F)F)c4)C3)cc2F)C(=O)N1` (stereo not shown) [Compound 28, 1-(3-chloro-5-(difluoromethoxy)phenyl)-3-(1-(4-(2,6-dioxopiperidin-3-yl)-3,5-difluorophenyl)azetidin-3-yl)urea], in assay [1], the DC50 fell in the range of 30 to 300 nM. In addition, the IC50 in assay [2] lay within 100 to 1000 nM.
Take `Cc1ccc(NC(=O)OC2CN(c3cc(Cl)c(C4CCC(=O)NC4=O)cc3F)C2)cc1Cl` (stereo not shown) [Compound 29]: the DC50 in assay [1] was in the range of 30 to 300 nM. Further, in assay [2], the IC50 was more than 1000 nM.
Turning to `C[C@@H]1CCCN1c1ccc(NC(=O)NC2CN(c3cc(F)c(C4CCC(=O)NC4=O)c(F)c3)C2)cn1` (stereo partly drawn) [Compound 30, 1-(1-(4-(2,6-dioxopiperidin-3-yl)-3,5-difluorophenyl)azetidin-3-yl)-3-(6-((R)-2-methylpyrrolidin-1-yl)pyridin-3-yl)urea], in assay [1], the DC50 is not above 30 nM. For the same molecule, in assay [2], the IC50 was not above 100 nM.
Turning to `Cc1cc(C)cc(NC(=O)OC2CN(c3ccc(C4CCC(=O)NC4=O)c(Cl)c3)C2)c1` (stereo not shown) [Compound 31, 1-(3-chloro-4-(2,6-dioxopiperidin-3-yl)phenyl)azetidin-3-yl (3,5-dimethylphenyl)carbamate], in assay [1], the DC50 was more than 300 nM. Moreover, the IC50 in assay [2] was in the range of 100 to 1000 nM.
